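Assay format: 96-well plates, 48-hour exposure. At the TGI there is no net growth.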
Legend:
Assay in all cases: NCI-60 cell line screen, 48 h
[1] = system: SR leukemia
[2] = system: HOP-62 NSCLC
[3] = system: HCT-15 colon
[4] = system: A498 renal
[5] = system: HCT-116 colon
[6] = system: SK-MEL-28 melanoma
[7] = system: NCI-H226 lung
[8] = system: UACC-62 melanoma
[9] = system: MALME-3M melanoma
[10] = system: NCI-H460 lung
[11] = system: MDA-MB-231 breast
[12] = system: RPMI-8226 leukemia
[13] = system: SK-MEL-2 melanoma
[14] = system: T-47D breast
[15] = system: DU-145 prostate
[16] = system: SN12C renal
[17] = system: HCC-2998 colon
[18] = system: MOLT-4 leukemia
[19] = system: IGROV1 ovarian
[20] = system: SF-539 CNS
[21] = system: MDA-MB-435
[22] = system: COLO 205 colon
[23] = system: 786-0 renal
[24] = system: SK-MEL-5 melanoma
[25] = system: U251 CNS
[26] = system: SF-295 CNS
[27] = system: K-562 leukemia
[28] = system: HOP-92 NSCLC
[29] = system: NCI-H522 lung
[30] = system: NCI-H23 lung
[31] = system: SK-OV-3 ovarian
[32] = system: OVCAR-8 ovarian
[33] = system: SW-620 colon
[34] = system: OVCAR-3 ovarian
[35] = system: SF-268 CNS
[36] = system: M14 melanoma
[37] = system: RXF 393 renal
[38] = system: HL-60(TB) leukemia
[39] = system: A549 NSCLC
[40] = system: OVCAR-4 ovarian
[41] = system: CCRF-CEM leukemia
[42] = system: SNB-19 CNS
[43] = system: LOX IMVI melanoma
[44] = system: EKVX NSCLC
[45] = system: UACC-257 melanoma
[46] = system: OVCAR-5 ovarian
[47] = system: CAKI-1 renal
[48] = system: SNB-75 CNS
[49] = system: ACHN renal
[50] = system: HS 578T breast
[51] = system: UO-31 renal
[52] = system: HT29 colon
[53] = system: PC-3 prostate
[54] = system: NCI/ADR-RES ovarian
[55] = system: MCF7 breast
[56] = system: KM12 colon
[57] = system: TK-10 renal
[58] = system: BT-549 breast

CC1(C)CC(=O)C2=C(C1)OC1=C(CC(C)(C)CC1=O)C2c1ccccc1Cl (stereo not given)
TGI [1]: > 100 µM
TGI [2]: > 100 µM
TGI [3]: > 100 µM
TGI [4]: > 100 µM
TGI [5]: > 100 µM
TGI [6]: > 100 µM
TGI [7]: > 100 µM
TGI [8]: > 100 µM
TGI [9]: > 100 µM
TGI [10]: > 100 µM
TGI [11]: > 100 µM
TGI [12]: > 100 µM
TGI [13]: > 100 µM
TGI [14]: > 100 µM
TGI [15]: > 100 µM
TGI [16]: > 100 µM
TGI [17]: > 100 µM
TGI [18]: > 100 µM
TGI [19]: > 100 µM
TGI [20]: > 100 µM
TGI [21]: > 100 µM
TGI [22]: > 100 µM
TGI [23]: > 100 µM
TGI [24]: > 100 µM
TGI [25]: > 100 µM
TGI [26]: > 100 µM
TGI [27]: > 100 µM
TGI [28]: > 100 µM
TGI [29]: > 100 µM
TGI [30]: > 100 µM
TGI [31]: > 100 µM
TGI [32]: > 100 µM
TGI [33]: > 100 µM
TGI [34]: > 100 µM
TGI [35]: > 100 µM
TGI [36]: > 100 µM
TGI [37]: > 100 µM
TGI [38]: > 100 µM
TGI [39]: > 100 µM
TGI [40]: > 100 µM
TGI [41]: > 100 µM
TGI [42]: > 100 µM
TGI [43]: > 100 µM
TGI [44]: > 100 µM
TGI [45]: > 100 µM
TGI [46]: > 100 µM
TGI [47]: > 100 µM
TGI [48]: > 100 µM
TGI [49]: > 100 µM
TGI [50]: > 100 µM
TGI [51]: 3.67 µM
TGI [52]: > 100 µM
TGI [53]: > 100 µM
TGI [54]: > 100 µM

COC[C@H](Cc1ccccc1)N=Cc1ccccc1
TGI [1]: > 100 µM
TGI [55]: > 100 µM
TGI [2]: > 100 µM
TGI [3]: > 100 µM
TGI [5]: > 100 µM
TGI [6]: > 100 µM
TGI [8]: > 100 µM
TGI [9]: > 100 µM
TGI [56]: > 100 µM
TGI [10]: > 100 µM
TGI [12]: > 100 µM
TGI [13]: > 100 µM
TGI [14]: > 100 µM
TGI [15]: > 100 µM
TGI [16]: > 100 µM
TGI [17]: > 100 µM
TGI [18]: > 100 µM
TGI [19]: > 100 µM
TGI [21]: > 100 µM
TGI [22]: > 100 µM
TGI [23]: > 100 µM
TGI [24]: > 100 µM
TGI [25]: > 100 µM
TGI [26]: > 100 µM
TGI [27]: > 100 µM
TGI [29]: > 100 µM
TGI [30]: > 100 µM
TGI [31]: > 100 µM
TGI [32]: > 100 µM
TGI [33]: > 100 µM
TGI [35]: > 100 µM
TGI [36]: > 100 µM
TGI [37]: > 100 µM
TGI [39]: > 100 µM
TGI [40]: > 100 µM
TGI [41]: > 100 µM
TGI [42]: > 100 µM
TGI [43]: > 100 µM
TGI [44]: > 100 µM
TGI [45]: > 100 µM
TGI [57]: > 100 µM
TGI [46]: > 100 µM
TGI [47]: > 100 µM
TGI [48]: > 100 µM
TGI [49]: > 100 µM
TGI [50]: > 100 µM
TGI [51]: > 100 µM
TGI [58]: > 100 µM
TGI [52]: > 100 µM
TGI [53]: > 100 µM
TGI [54]: > 100 µM
